Measured values taken from the RepoRT retention time repository.

test: HILIC, HILICON iHILIC-(P) Classic, HILIC, PEEK, 50 × 2.1 mm, 5 µm, 30 °C, 0.12 mL/min, estimated dead time 0.92 min; A: water + 20 mM ammonium carbonate + 10 mM ammonium hydroxide; B: acetonitrile; gradient (min/%B) 0/90 1/90 21/20 21.5/20 23.5/20 24.5/90 26/90 26.5/90; settings: stereoisomer not certain

Structure (SMILES)	LC retention time [min]
Nc1ncnc2c1ncn2C1OC(COP(=O)(O)OP(=O)(O)O)C(O)C1O (stereo not drawn) [ADP]	12.3
CC(O)C(=O)O (stereo not drawn) [Lactic Acid]	3.24
NC(=O)C1=CN(C2OC(COP(=O)(O)OP(=O)(O)OCC3OC(n4cnc5c(N)ncnc54)C(OP(=O)(O)O)C3O)C(O)C2O)C=CC1 (stereo not drawn) [NADPH]	16.9
CC(C)C(N)C(=O)O (stereo not drawn) [Valine]	6.3
O=C(O)CCC(=O)O [Succinic Acid]	11.6
CC(C)CC(N)C(=O)O (stereo not drawn) [Leucine]	5.52
NC(=O)c1ccc[n+](C2OC(COP(=O)([O-])O)C(O)C2O)c1 (stereo not drawn) [NMN]	9.92
Nc1ncnc2nc[nH]c12 [Adenine]	3.45
NC(=O)C1=CN(C2OC(COP(=O)(O)OP(=O)(O)OCC3OC(n4cnc5c(N)ncnc54)C(O)C3O)C(O)C2O)C=CC1 (stereo not drawn) [NADH]	9.31
O=c1ccn(C2OC(COP(=O)(O)O)C(O)C2O)c(=O)[nH]1 (stereo not drawn) [UMP]	9.35
O=C(O)C1(O)CC(O)C(O)C(O)C1 (stereo not drawn) [Quinic Acid]	6.61
Nc1nc2c(ncn2C2OC(CO)C(O)C2O)c(=O)[nH]1 (stereo not drawn) [Guanosine]	6.51
NCCCCC(N)C(=O)O (stereo not drawn) [Lysine]	18.8
CSCCC(N)C(=O)O (stereo not drawn) [Methionine]	5.98
Nc1ncnc2c1ncn2C1OC(COP(=O)(O)O)C(O)C1O (stereo not drawn) [AMP]	8.72
O=c1ccn(C2OC(COP(=O)(O)OP(=O)(O)O)C(O)C2O)c(=O)[nH]1 (stereo not drawn) [UDP]	12.3
O=C(CO)COP(=O)(O)O [Triose phosphate]	10.9
NC(Cc1ccc(O)cc1)C(=O)O (stereo not drawn) [Tyrosine]	6.96

Structure (SMILES)	LC retention time [min]
O=C(O)CCCCC1SCC2NC(=O)NC21 (stereo not drawn) [Biotin]	3.27
NC(CCC(=O)O)C(=O)O (stereo not drawn) [Glutamic acid]	9.84
O=C(O)C(CO)OP(=O)(O)O (stereo not drawn) [Phosphoglyceric acid A]	13.6
O=P(O)(O)OCC1OC(O)(COP(=O)(O)O)C(O)C1O (stereo not drawn) [Fructose-1,6-bisphosphate]	16
O=c1ccn(C2OC(COP(=O)(O)OP(=O)(O)OP(=O)(O)O)C(O)C2O)c(=O)[nH]1 (stereo not drawn) [UTP]	14.2
CC(=O)NC(CC(=O)O)C(=O)O (stereo not drawn) [N-Acetylaspartic acid]	9.45
Cc1ncc(C[n+]2csc(CCO)c2C)c(N)n1 [Thiamine]	12.8
NC(CSSCC(N)C(=O)O)C(=O)O (stereo not drawn) [Cystine]	11.6
O=C(O)CC(O)C(=O)O (stereo not drawn) [Malic Acid]	12.9
O=C(O)CC(O)(CC(=O)O)C(=O)O [Citric acid]	16.6
NC(Cc1c[nH]c2ccccc12)C(=O)O (stereo not drawn) [Tryptophan]	6.14
O=C(O)CC(=O)O [Malonic Acid]	9.18
CC(O)C(N)C(=O)O (stereo not drawn) [Threonine]	8.21
Nc1ccn(C2OC(COP(=O)(O)OP(=O)(O)O)C(O)C2O)c(=O)n1 (stereo not drawn) [CDP]	13.2
NCCCC(N)C(=O)O (stereo not drawn) [Ornithine]	18.1
NC(Cc1ccccc1)C(=O)O (stereo not drawn) [Phenylalanine]	5.17
Nc1ncnc2c1ncn2C1OC(COP(=O)(O)OP(=O)(O)OP(=O)(O)O)C(O)C1O (stereo not drawn) [ATP]	13.5
O=C(O)CC(C(=O)O)C(O)C(=O)O (stereo not drawn) [Isocitric acid]	16.1

Next, values leading:

LC retention time [min]	Structure (SMILES)
15.4	NC(CCC(=O)NC(CSSCC(NC(=O)CCC(N)C(=O)O)C(=O)NCC(=O)O)C(=O)NCC(=O)O)C(=O)O (stereo not drawn) [GSSG]
8.53	CC(=O)SCCNC(=O)CCNC(=O)C(O)C(C)(C)COP(=O)(O)OP(=O)(O)OCC1OC(n2cnc3c(N)ncnc32)C(O)C1OP(=O)(O)O (stereo not drawn) [Acetyl-CoA]
13.7	C=C(OP(=O)(O)O)C(=O)O [PEP]
14.3	Nc1nc2ncc(CNc3ccc(C(=O)NC(CCC(=O)O)C(=O)O)cc3)nc2c(=O)[nH]1 (stereo not drawn) [Folic Acid]
11.1	Nc1ccn(C2OC(COP(=O)(O)O)C(O)C2O)c(=O)n1 (stereo not drawn) [CMP]
5.88	Nc1ccn(C2OC(CO)C(O)C2O)c(=O)n1 (stereo not drawn) [Cytidine]
2.38	O=C(O)c1cccnc1 [Nicotinic acid]
10.7	NC(=O)CC(N)C(=O)O (stereo not drawn) [Asparagine]
17	Nc1nc2c(ncn2C2OC(COP(=O)(O)OP(=O)(O)OP(=O)(O)O)C(O)C2O)c(=O)[nH]1 (stereo not drawn) [GTP]
11.9	CC(=O)NC1C(OP(=O)(O)OP(=O)(O)OCC2OC(n3ccc(=O)[nH]c3=O)C(O)C2O)OC(CO)C(O)C1O (stereo not drawn) [UDP-GlcNAc]
8.67	NC(CO)C(=O)O (stereo not drawn) [Serine]
14.2	Nc1nc2c(ncn2C2OC(COP(=O)(O)O)C(O)C2O)c(=O)[nH]1 (stereo not drawn) [GMP]
13.4	NC(=O)c1ccc[n+](C2OC(COP(=O)(O)OP(=O)(O)OCC3OC(n4cnc5c(N)ncnc54)C(OP(=O)(O)O)C3O)C(O)C2O)c1 (stereo not drawn) [NADP]
6.54	O=C(O)C1CCCN1 (stereo not drawn) [Proline]
9.17	O=C1OC(C(O)CO)C(O)=C1O (stereo not drawn) [Ascorbic Acid]
14.8	Nc1nc2c(ncn2C2OC(COP(=O)(O)OP(=O)(O)O)C(O)C2O)c(=O)[nH]1 (stereo not drawn) [GDP]
10.9	O=P(O)(O)OCC(O)CO (stereo not drawn) [Glycerol-3-phosphate]
5.8	CCC(C)C(N)C(=O)O (stereo not drawn) [Isoleucine]
8.38	NC(=O)CCC(N)C(=O)O (stereo not drawn) [Glutamine]
3.59	Nc1ncnc2c1ncn2C1OC(CO)C(O)C1O (stereo not drawn) [Adenosine]
9.03	NC(=O)c1ccc[n+](C2OC(COP(=O)(O)OP(=O)(O)OCC3OC(n4cnc5c(N)ncnc54)C(O)C3O)C(O)C2O)c1 (stereo not drawn) [NAD]
8.79	NC(CCC(=O)NC(CS)C(=O)NCC(=O)O)C(=O)O (stereo not drawn) [GSH]
